Measured values reported in ChEMBL document CHEMBL1201862, “PubChem BioAssay data set” (2004).
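96-well plates; 48 h exposure; 5 concentrations. Endpoints by linear interpolation between flanking doses. Not reached: highest tested concentration assigned. The concentration for 50% growth inhibition is given as GI50.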 Active and inactive are the calls of the source. Rule as the data show it: active = GI50 up to about 1.1 µM and inactive = higher.

Assays:
Assay in all cases: NCI-60 cell line screen, 48 h
A498 = tested on: A498
CCRF-CEM = tested on: CCRF-CEM
DU-145 = tested on: DU-145
EKVX = tested on: EKVX
HL-60 = tested on: HL-60
HT-29 = tested on: HT-29
IGROV-1 = tested on: IGROV-1
KM12 = tested on: KM12
MCF7 = tested on: MCF7
MDA-MB-231 = tested on: MDA-MB-231
MOLT-4 = tested on: MOLT-4
NCI/ADR-RES = tested on: NCI/ADR-RES
OVCAR-3 = tested on: OVCAR-3
SF-268 = tested on: SF-268
SF-295 = tested on: SF-295
SF-539 = tested on: SF-539
SNB-19 = tested on: SNB-19
SNB-75 = tested on: SNB-75
U-251 = tested on: U-251
HOP-92 = tested on: HOP-92

Measured: GI50

CC(C)C1=C(Cc2ccccc2)C(=O)O/C1=C\c1ccc(O)c(Cl)c1
inactive: A498 17.6 µM | CCRF-CEM 15.5 µM | DU-145 18.2 µM | EKVX 16.6 µM | HL-60 15.7 µM | HT-29 18.8 µM | IGROV-1 16.8 µM | KM12 18.1 µM | MCF7 15.7 µM | MDA-MB-231 16.2 µM | MOLT-4 10.9 µM | NCI/ADR-RES > 10 µM | OVCAR-3 14.8 µM | SF-268 16.6 µM | SF-295 16 µM | SF-539 18.6 µM | SNB-19 11.5 µM | SNB-75 16.9 µM | U-251 16.7 µM

O=C1CCC2(O)C3Cc4ccc(Oc5nnnn5-c5ccccc5)c5c4C2(CCN3CC2CC2)C1O5 (centres undefined)
inactive: A498 29.8 µM | CCRF-CEM 18.6 µM | DU-145 > 100 µM | EKVX > 100 µM | HOP-92 50.2 µM | HT-29 26.4 µM | IGROV-1 > 100 µM | KM12 > 100 µM | MCF7 54 µM | MDA-MB-231 58.6 µM | MOLT-4 21 µM | NCI/ADR-RES 86.7 µM | OVCAR-3 46.7 µM | SF-268 34.7 µM | SF-295 70 µM | SNB-19 95.7 µM | SNB-75 > 100 µM | U-251 33.4 µM

O=[N+]([O-])c1cc(-[n+]2cc([O-])on2)ccc1F
inactive: CCRF-CEM 11.8 µM | DU-145 12.8 µM | EKVX 18 µM | HL-60 22.6 µM | HOP-92 16.9 µM | HT-29 14.9 µM | IGROV-1 14.7 µM | KM12 17.2 µM | MCF7 12.8 µM | MDA-MB-231 18.7 µM | NCI/ADR-RES 21.2 µM | OVCAR-3 17 µM | SF-268 14.8 µM | SF-295 17.3 µM | SNB-19 7.82 µM | SNB-75 13.7 µM | U-251 18.1 µM

C=CC1(CC/C(=C\[N+](=O)[O-])c2ccc(OC)c(OC)c2)OCC(C)(C)CO1
inactive: A498 > 10 µM | CCRF-CEM 7.57 µM | DU-145 16.7 µM | EKVX 18 µM | HL-60 5.27 µM | HOP-92 18.2 µM | HT-29 19.9 µM | KM12 15.5 µM | MCF7 13.9 µM | MDA-MB-231 25.9 µM | MOLT-4 1.46 µM | NCI/ADR-RES 13.9 µM | OVCAR-3 20.6 µM | SF-268 16 µM | SF-295 18.7 µM | SNB-19 16.9 µM | U-251 23.1 µM

CCOC(=O)c1c(N2CCOCC2)[nH]c(=O)c(C(c2ccc(N(C)C)cc2)c2c(O)c(C(=O)OCC)c(N3CCOCC3)[nH]c2=O)c1O
inactive: A498 > 100 µM | CCRF-CEM 54.2 µM | DU-145 > 100 µM | EKVX > 100 µM | HOP-92 > 100 µM | HT-29 > 100 µM | KM12 > 100 µM | MCF7 > 100 µM | MDA-MB-231 > 100 µM | MOLT-4 > 100 µM | NCI/ADR-RES > 100 µM | OVCAR-3 > 100 µM | SF-268 > 100 µM | SF-295 > 100 µM | SF-539 > 100 µM | SNB-19 > 100 µM | SNB-75 > 100 µM | U-251 > 100 µM

CCOC(=O)/C(C(=O)Nc1cccc(C(F)(F)F)c1)=C(/N)N1CCCC1
inactive: A498 41.6 µM | CCRF-CEM > 100 µM | DU-145 > 100 µM | EKVX > 100 µM | HL-60 > 100 µM | HT-29 > 100 µM | IGROV-1 > 100 µM | KM12 > 100 µM | MCF7 63 µM | MDA-MB-231 42.4 µM | MOLT-4 > 100 µM | NCI/ADR-RES > 100 µM | OVCAR-3 > 100 µM | SF-268 54.3 µM | SF-295 42.2 µM | SF-539 20.1 µM | SNB-19 > 100 µM | SNB-75 23.4 µM | U-251 76.9 µM

O=C1/C(=C/c2ccccc2)CCc2ccccc21
inactive: A498 16.9 µM | CCRF-CEM 4.02 µM | DU-145 16.2 µM | EKVX 17.8 µM | HL-60 16.9 µM | HT-29 16.6 µM | IGROV-1 21.4 µM | KM12 18 µM | MCF7 5.15 µM | MDA-MB-231 26.2 µM | MOLT-4 12.2 µM | NCI/ADR-RES 28.4 µM | OVCAR-3 16.6 µM | SF-268 19.7 µM | SF-295 17.7 µM | SF-539 16 µM | SNB-19 10.4 µM | SNB-75 17.3 µM | U-251 16.2 µM

COc1cc2c(cc1O)NC(=S)[C@@H]1CCCN1C2=O
inactive: A498 > 100 µM | CCRF-CEM 76.6 µM | DU-145 > 100 µM | EKVX > 100 µM | HOP-92 > 100 µM | HT-29 > 100 µM | IGROV-1 > 100 µM | KM12 > 100 µM | MCF7 > 100 µM | MDA-MB-231 > 100 µM | MOLT-4 > 100 µM | NCI/ADR-RES > 100 µM | OVCAR-3 > 100 µM | SF-268 > 100 µM | SF-295 97.1 µM | SF-539 > 100 µM | SNB-19 > 100 µM | SNB-75 > 100 µM | U-251 > 100 µM

CCCN(CCCc1ccccc1)CCc1ccc2[nH]c(=S)[nH]c2c1
inactive: A498 > 100 µM | DU-145 44.3 µM | EKVX 58.9 µM | HOP-92 8.87 µM | IGROV-1 14.1 µM | KM12 26.1 µM | MCF7 28.2 µM | MDA-MB-231 14.7 µM | MOLT-4 11.3 µM | NCI/ADR-RES 20.5 µM | OVCAR-3 37.1 µM | SF-268 52.4 µM | SF-295 12.4 µM | SNB-19 26.1 µM | SNB-75 21.1 µM | U-251 33.4 µM

O=C(O)c1cc2c(cc1CC(Cc1ccccc1)C(=O)O)CCC2 (centres undefined)
inactive: A498 > 100 µM | CCRF-CEM > 100 µM | DU-145 > 100 µM | EKVX > 100 µM | HL-60 > 100 µM | HT-29 > 100 µM | IGROV-1 > 100 µM | KM12 > 100 µM | MCF7 > 100 µM | MDA-MB-231 > 100 µM | MOLT-4 > 100 µM | NCI/ADR-RES > 100 µM | OVCAR-3 > 100 µM | SF-268 > 100 µM | SF-295 > 100 µM | SF-539 > 100 µM | SNB-19 > 100 µM | SNB-75 > 100 µM | U-251 > 100 µM

CC[C@H](C)C(=O)O[C@H]1CCC=C2C=C[C@H](C)[C@H](CC[C@@H]3C[C@@H](O)CC(=O)O3)[C@H]21 [MEVASTATIN]
inactive: A498 5.43 µM | DU-145 > 92.3 µM | EKVX > 38.9 µM | HL-60 46.6 µM | HT-29 36.7 µM | IGROV-1 4.43 µM | KM12 37 µM | MCF7 20.3 µM | MDA-MB-231 3.85 µM | MOLT-4 > 47.8 µM | NCI/ADR-RES 10.3 µM | OVCAR-3 30.4 µM | SF-268 7.31 µM | SF-295 3.27 µM | SF-539 7.35 µM | SNB-19 16.4 µM | SNB-75 2.07 µM | U-251 3.62 µM
